Test results reported in publication PMC7942396, “Drug Repurposing Screen for Compounds Inhibiting the Cytopathic Effect of SARS-CoV-2” (Frontiers in Pharmacology, 2021).
Where a name gives a salt, the structure may show the parent alone. Read-outs that look alike come from different tables or passages of the source.

Legend:
[1] = test system: SARS-CoV-2 (USA_WA1/2020); experiment: microbe, parasite or virus in culture; format: cell-based; conditions: for EC50: read-out: CPE EC50
[2] = test system: Vero E6 cells
[3] = SARS-CoV-2 CPE assay, Vero E6 cells
[4] = cytotoxicity counter-assay, Vero E6 cells without virus
[5] = read-out: Cytotox CC50, cytotoxicity counter-assay, Vero E6 cells without virus
[6] = SARS-CoV-2 CPE assay, Vero E6 cells, confirmed anti-SARS-CoV-2 compounds
[7] = SARS-CoV-2 CPE assay, Vero E6 cells, efficacy
[8] = […], DMSO 0%, no-virus control 100%, hit confirmation
[9] = Vero E6 cells without virus, 72 h

## OCCCNc1cc(-c2ccnc(Nc3cccc(Cl)c3)n2)ccn1 [CGP-60474]
[1]
  CPE % Efficacy: 104.5%
  EC50: 6.31 µM
[2]
  % Cytotox: 61.3%
  CC50: 0.11 µM

## Cl.O=C1Nc2nc(-c3c(O)cccc3OCC3CC3)cc([C@@H]3CCCNC3)c2CO1 [Bay-65-1942 hydrochloride]
[1]; [3]
  CPE % Efficacy: 53.9%
  EC50: 11.2 µM
[2]; [4]
  % Cytotox: 23.5%
[2]; [5]
  CC50: 11.2 µM

## HBX 19818
[1]; [6]
  EC50: 7.94 µM
[1]; [7]
  CPE % Efficacy: 80.9%
[2]; [4]
  % Cytotox: 39.1%

## CNC(=O)c1ccc2c(C(=Nc3cccc(CN(C)C)c3)c3ccccc3)c(O)[nH]c2c1 [NCGC00346543]
[1]; [3]
  CPE % Efficacy: 94.9%
  EC50: 12.6 µM
[2]; [4]
  % Cytotox: 22.6%

## COc1ccc(C2CC(c3ccccc3)=NN2c2ccc(S(N)(=O)=O)cc2)cc1 (stereo not drawn) [ML-141]
[1]; [6]
  EC50: 8.91 µM
[1]; [7]
  CPE % Efficacy: 65.2%
[2]; [4]
  % Cytotox: 23.8%

## CCCCCCOc1ccc(C(=N)N(CCCC)CCCC)c2ccccc12.Cl [Bunamidine hydrochloride]
[1]; [6]
  EC50: 4.47 µM
[1]; [7]
  CPE % Efficacy: 84.9%
[2]; [4]
  % Cytotox: 109.2%
[2]; [5]
  CC50: 11.2 µM

## C=C1Cc2c(Cl)cc3[nH]c4c5c3c2[C@@]2(O)[C@@H]1C[C@@H]2C(C)(C)O[C@H]5C1CC[C@@]2(O)[C@@]35O[C@@H]3[C@H]3OC(C)(C)[C@H]3O[C@H]5CC[C@]2(C)[C@@]41C (stereo partly drawn) [NCGC00380694]
[1]; [6]
  EC50: 2.99 µM
[1]; [7]
  CPE % Efficacy: 50.6%
[2]; [4]
  % Cytotox: 19.8%
[2]; [5]
  CC50: 4.74 µM

## CC(=O)OC1[C@H]2[C@@H](C[C@@H](C)[C@@H]3C=CC(=O)[C@@]13C)OC(=O)[C@@H]2C (stereo partly drawn) [NCGC00385908]
[1]; [6]
  EC50: 7.08 µM
[1]; [7]
  CPE % Efficacy: 67.1%
[2]; [4]
  % Cytotox: 44.4%
[2]; [5]
  CC50: 11.2 µM

## C(=N\Nc1nc(Nc2ccccc2)nc(N2CCOCC2)n1)/c1c[nH]c2ccccc12 [MLS000543798]
[1]; [6]
  EC50: 0.11 µM
[1]; [7]
  CPE % Efficacy: 87.4%
[2]; [4]
  % Cytotox: 33.6%
[2]; [5]
  CC50: 0.45 µM

## O=C1NC(=O)/C(=C/c2cccc(C(F)(F)F)c2)S1 [SMI-4a]
[1]; [3]
  CPE % Efficacy: 43.9%
  EC50: 12.6 µM
[2]; [4]
  % Cytotox: 29.5%

## CC1(C)CCC(C)(C)c2cc(C#Cc3ccc(C(=O)O)cc3)ccc21 [EC 23]
[1]; [6]
  EC50: 3.98 µM
[1]; [7]
  CPE % Efficacy: 110.5%
[2]; [4]
  % Cytotox: 74.0%
[2]; [5]
  CC50: 12.6 µM

## COc1cc2nc(-c3ccc(N4CCN(C)CC4)cc3)nc(NCCN3CCOCC3)c2cc1OC [CPG-52364]
[1]; [6]
  EC50: 11.2 µM
[1]; [7]
  CPE % Efficacy: 63.1%
[2]; [4]
  % Cytotox: 41.6%
[2]; [5]
  CC50: 10 µM

## Cc1ccc(C(=O)Nc2cccc(C(F)(F)F)c2)cc1Nc1nc(-c2cccnc2)nc2c1cnn2C [NVP-BHG712]
[1]; [6]
  EC50: 2.51 µM
[1]; [7]
  CPE % Efficacy: 123.5%
[2]
  % Cytotox: 58.4%
  CC50: 3.98 µM

## CCCCCCCCCCCCCCCc1cccc(O)c1C(=O)O [Anacardic Acid]
[1]; [6]
  EC50: 3.98 µM
[1]; [7]
  CPE % Efficacy: 89.6%
[2]; [4]
  % Cytotox: 72.9%

## COc1ccc(CCNCc2ccc(OC)c3ccccc23)cc1 [SBI-0087702]
[1]; [6]
  EC50: 11.2 µM
[1]; [7]
  CPE % Efficacy: 106.7%
[2]; [4]
  % Cytotox: 24.6%
[2]; [5]
  CC50: 7.08 µM

## NC(=O)c1cccc(-c2cc(Nc3ccc(OC(F)(F)F)cc3)ncn2)c1 [GNF-2]
[1]; [3]
  CPE % Efficacy: 63.4%
  EC50: 11.2 µM
[2]; [4]
  % Cytotox: 0.0%

## COc1ccccc1N1CCN(CC[C@@](C)(C(=O)C2CCCCC2)c2ccccc2)CC1 [(R)-(-)-LY 426965 dihydrochloride, reference compound]
[1]; [8]
  CPE % Efficacy: 110.7%
[1]
  EC50: 10 µM
[2]; [9]
  % Cytotox: <30%

## CN1CCN(C(=O)c2ccc(Nc3nccc(-c4cccs4)n3)cc2Cl)CC1
[1]; [6]
  EC50: 11.2 µM
[1]; [7]
  CPE % Efficacy: 71.5%
[2]; [4]
  % Cytotox: 55.6%
[2]; [5]
  CC50: 10 µM

## O=C1NC(=O)/C(=C/c2ccc3c(c2)OC(F)(F)O3)S1 [AS-604850]
[1]; [3]
  CPE % Efficacy: 49.2%
  EC50: 12.6 µM
[2]; [4]
  % Cytotox: 31.8%
[2]; [5]
  CC50: 11.2 µM

## Cc1ccc(NC(=O)C(C)C)cc1C1CCN(Cc2ccc(Oc3ccc(F)c(F)c3)cc2)CC1.Cl [SNAP 94847 hydrochloride]
[1]; [6]
  EC50: 4.47 µM
[1]; [7]
  CPE % Efficacy: 60.0%
[2]; [4]
  % Cytotox: 95.1%
[2]; [5]
  CC50: 12.6 µM

## CCC[C@@H](NC(=O)N1C(=O)C(CC)(CC)[C@@H]1Oc1ccc(C(=O)N2CCN(C)CC2)cc1)c1ccc2c(c1)OCO2 [DMP 777, reference compound]
[1]; [8]
  CPE % Efficacy: 92.5%
[1]
  EC50: 10 µM
[2]; [9]
  % Cytotox: <30%

## O=C(N[C@@H](c1ccccc1)[C@@H]1CCCCN1)c1cccc(C(F)(F)F)c1Cl [SSR-504734]
[1]; [3]
  CPE % Efficacy: 31.7%
  EC50: 14.1 µM
[2]; [4]
  % Cytotox: 15.7%
[2]; [5]
  CC50: 7.94 µM

## C[C@H]1CC[C@@]2(OC1)O[C@H]1CC3[C@@H]4CC[C@@H]5C[C@@H](O[C@@H]6O[C@H](CO)[C@@H](O[C@@H]7O[C@H](CO[C@@H]8OC[C@@H](O)[C@H](O)[C@H]8O)[C@@H](O[C@@H]8O[C@H](CO)[C@H](O)[C@H](O)[C@H]8O)[C@H](O)[C@H]7O)[C@H](O)[C@H]6O)CC[C@]5(C)C4CC[C@]3(C)[C@H]1[C@@H]2C (stereo partly drawn) [NCGC00385658]
[1]; [6]
  EC50: 3.03 µM
[1]; [7]
  CPE % Efficacy: 68.4%
[2]; [4]
  % Cytotox: 78.8%
[2]; [5]
  CC50: 3.4 µM

## O=C1NC(=O)c2cc(Nc3ccccc3)c(Nc3ccccc3)cc21 [DAPH]
[1]; [6]
  EC50: 3.98 µM
[1]; [7]
  CPE % Efficacy: 53.9%
[2]; [4]
  % Cytotox: 79.5%
[2]; [5]
  CC50: 11.2 µM

## COc1ccc(S(=O)(=O)N(CCO)c2ccccc2CN(C)C/C=C/c2ccc(Cl)cc2)cc1 [KN-93]
[1]; [6]
  EC50: 11.2 µM
[1]; [7]
  CPE % Efficacy: 69.0%
[2]; [4]
  % Cytotox: 34.4%
[2]; [5]
  CC50: 11.2 µM

## COc1ccccc1OCCNCC(O)COc1cccc2[nH]c3ccccc3c12.O=C(O)C(O)C(O)C(=O)O (stereo not drawn) [Carvedilol tartrate]
[1]; [6]
  EC50: 11.2 µM
[1]; [7]
  CPE % Efficacy: 101.1%
[2]; [4]
  % Cytotox: 12.7%
[2]; [5]
  CC50: 11.2 µM

## CC1(N2CCC(n3c([C@@H]4CCCNC4)nc4ccccc43)CC2)CCCCCCC1 [MCOPPB, reference compound]
[1]; [8]
  CPE % Efficacy: 85.6%
[1]
  EC50: 3.5 µM
[2]; [9]
  % Cytotox: <30%

## O=S(=O)(NCC1CC1)c1ccc(Nc2nccc(N3CCCc4cc(O)ccc43)n2)cc1 [Pyrintegrin]
[1]; [6]
  EC50: 0.79 µM
[1]; [7]
  CPE % Efficacy: 76.3%
[2]; [4]
  % Cytotox: 70.3%
[2]; [5]
  CC50: 3.98 µM

## C[C@@H]1O[C@@H](O[C@H]2[C@H](OC(=O)[C@]34CCC(C)(C)C[C@H]3C3=CCC5[C@@]6(C)C[C@H](O)[C@H](O[C@@H]7O[C@H](CO[C@@H]8OC[C@H](O)[C@H](O)[C@H]8O)[C@@H](O)[C@H](O)[C@H]7O)C(C)(C)C6CC[C@@]5(C)[C@]3(C)C[C@H]4O)OC[C@@H](O)[C@@H]2O)[C@H](O)[C@H](O[C@@H]2OC[C@](O)(CO)[C@H]2O)[C@H]1O[C@@H]1OC[C@H](O)[C@H](O[C@@H]2OC[C@@H](O)[C@H](O)[C@H]2O)[C@H]1O (stereo partly drawn) [NCGC00385321]
[1]; [6]
  EC50: 2.4 µM
[1]; [7]
  CPE % Efficacy: 105.7%
[2]; [4]
  % Cytotox: 35.4%
[2]; [5]
  CC50: 2.4 µM

## CC(=O)O/N=C1\C(=O)N(Cc2cc(Cl)ccc2Cl)c2ccc(Cl)cc21 [LDN-57444]
[1]; [6]
  EC50: 11.2 µM
[1]; [7]
  CPE % Efficacy: 129.8%
[2]
  % Cytotox: 40.6%
  CC50: 12.6 µM

## O[C@@H]1[C@@H](O)[C@@H](O)CO[C@H]1O [alpha-L-Arabinopyranose, reference compound]
[1]; [8]
  CPE % Efficacy: 104.0%
[1]
  EC50: 2.4 µM
[2]; [9]
  % Cytotox: <30%

## CN(C)C(=O)COC(=O)Cc1ccc(OC(=O)c2ccc(NC(=N)N)cc2)cc1 [camostat, reference compound]
[1]
  Activity in the Vero E6 assay: not active

## Oligomycin A
[1]; [6]
  EC50: 3.98 µM
[1]; [7]
  CPE % Efficacy: 104.5%

## CN(C)CCCN1c2ccccc2Sc2ccc(C(F)(F)F)cc21 [Triflupromazine hydrochloride]
[1]; Severe acute respiratory syndrome coronavirus 2, Vero C1008, SARS-CoV-2 CPE assay, Vero E6 cells, confirmed anti-SARS-CoV-2 compounds
  EC50: 10 µM
[1]; Severe acute respiratory syndrome coronavirus 2, Vero C1008, SARS-CoV-2 CPE assay, Vero E6 cells, efficacy, read-out: CPE % Efficacy
  Emax: 77.3%

## CCC(C)CNCC(=O)N1CCc2sccc2C1COc1cccc(C)c1.Cl (stereo not drawn) [RU-SKI 43 (hydrochloride)]
[2]; [4]
  % Cytotox: 21.4%
[2]; [5]
  CC50: 8.91 µM

## CCCCCCCc1ccc(CCc2cccc(O)c2C(=O)O)cc1 [MG-149]
[2]; [4]
  % Cytotox: 23.4%

## N=C(N)Nc1ccc(C(=O)Oc2ccc3cc(C(=N)N)ccc3c2)cc1 [nafamstat, reference compound]
[1]
  Activity in the Vero E6 assay: not active
